Data as given in publication PMC12024912, “Druggability Studies of Benzene Sulfonamide Substituted Diarylamide (E3) as a Novel Diuretic” (Biomedicines, 2025).

Key:
[1] = design: method as in PMID 35458649; conditions: 25a, comparison value; cited from earlier work
UT-B [2] = molecular target: T1, UT-B (Mus musculus, UniProt Q8VHL0); assay: Erythrocyte lysis assay for UT-B inhibition, mouse erythrocytes; type: cell-based; conditions: erythrocyte lysis model; mouse; n = 3, means; read-out: IC50 (μM) Mouse
T1 construct: endogenous in cells; host or cells: erythrocytes from wild-type C57BL/6 mice
T1 sequence (Q8VHL0 1-384): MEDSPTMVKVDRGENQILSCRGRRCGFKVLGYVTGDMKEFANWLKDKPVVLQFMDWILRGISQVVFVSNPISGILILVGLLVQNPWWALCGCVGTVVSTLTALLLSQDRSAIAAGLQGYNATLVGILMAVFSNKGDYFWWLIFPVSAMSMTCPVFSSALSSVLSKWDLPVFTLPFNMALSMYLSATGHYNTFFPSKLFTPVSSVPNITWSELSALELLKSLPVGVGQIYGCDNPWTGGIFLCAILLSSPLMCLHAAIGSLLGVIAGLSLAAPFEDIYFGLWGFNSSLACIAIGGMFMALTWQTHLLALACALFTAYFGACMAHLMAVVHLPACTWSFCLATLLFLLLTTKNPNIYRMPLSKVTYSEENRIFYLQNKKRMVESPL
Procedure: (§1) The erythrocyte lysis assay was modified from a method described previously. Erythrocytes obtained from veins were diluted to a hematocrit value of 2% in hyperosmolar PBS containing 1.25 mol/L urea and 5 mmol/L glucose and incubated at r.t. for 2 h. Then, 99 μL erythrocyte suspension from a reservoir was added to each well of a 96-well round-bottom microplate, then 1 μL of the testing compound (500, 125, 31.25, 7.81, 1.95, 0.488, 0.122, 0.031, 0.0076 μmol/L dissolved in DMSO) was added to erythrocyte suspension and shook it up with microoscillator for 1 min. Following 5 min incubation, 20 μL erythrocyte suspension was transferred into 96-well black microplates preloaded with 180 μL isotonic PBS (10 mM, urea-free). Erythrocyte lysis was monitored at 710 nm optical density (OD710) for 6 min, with lysis rates calculated using control values from the same plate as Equation (1):Lysis (%) = 100 × (Aneg − Atest)/(Aneg − Apos)(1) where Atest is the absorbance value from the test well, Aneg is from a negative no-lysis control well, and Apos is from a positive full-lysis control.

UT-B [3] = molecular target: T2, UT-B (Rattus norvegicus, UniProt P97689); assay: Erythrocyte lysis assay for UT-B inhibition, rat erythrocytes; type: cell-based; conditions: erythrocyte lysis model; rat; n = 3, means; read-out: IC50 (μM) Rat
T2 construct: endogenous in cells; host or cells: erythrocytes from male SD rats
T2 sequence (P97689 1-384): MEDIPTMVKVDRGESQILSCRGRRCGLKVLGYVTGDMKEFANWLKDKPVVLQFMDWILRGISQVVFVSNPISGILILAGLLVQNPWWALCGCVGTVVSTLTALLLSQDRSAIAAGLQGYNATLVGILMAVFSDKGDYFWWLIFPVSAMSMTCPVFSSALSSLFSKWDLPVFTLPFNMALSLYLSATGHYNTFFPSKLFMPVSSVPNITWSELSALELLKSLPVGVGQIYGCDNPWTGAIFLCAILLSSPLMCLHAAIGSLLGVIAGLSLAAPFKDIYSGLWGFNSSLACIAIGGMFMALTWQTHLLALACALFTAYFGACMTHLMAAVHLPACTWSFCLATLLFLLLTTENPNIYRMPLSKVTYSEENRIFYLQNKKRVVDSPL
Procedure: as §1

mice = assay: Mouse sperm malformation assay; conditions: mice; day 35; E3 2000 mg/kg/day oral for 5 days; CP 50 mg/kg i.p.; vs control
Procedure: Male mice were randomly divided into three groups: control group (0.5% CMC-Na), E3 2000 mg/kg group, and positive group (50 mg/kg cyclophosphamide (CP), administered via intraperitoneal injection). E3 and the control group were administered once daily by intragastric gavage. All mice received treatment for 5 consecutive days. After the initial dosing period, […], the mice were euthanized, and evaluation of sperm parameters was performed as follows:
Caudal epididymides were dissected into fragments in physiological saline and incubated (37 °C, 5% CO2, 10 min). Spermatozoa were isolated through nylon mesh filtration. Semen parameters were quantified using computer-assisted semen analysis (CASA). Eosin-stained smears (20 μL sperm suspension) were analyzed to examine sperm morphology. […] Sperm shape abnormalities, such as banana, headless, without a hook, amorphous, double-tailed, and fat head, were identified and counted. In addition, the testis was reserved for morphological analysis. The spermatogenesis was graded from 1 to 10 using the Johnsen score.

[4] = system: rat hyponatremia model caused by SIADH; assay: Rat hyponatremia model caused by SIADH (dDAVP); type: in vivo
Procedure: The protocol for dDAVP-induced hyponatremia was adapted from a previous study, with tolvaptan chosen as the positive control. Preliminary experiments determined the dose of dDAVP (0.25 ng/h). Under isoflurane anesthesia, a 0.5 μg/mL dDAVP solution was injected subcutaneously using an osmotic minipump (ALZET 2002, Cupertino, CA, USA; 200 μL, low rate of 0.5 μL/h for […]). Rats were housed individually in metabolic cages to collect urine. Before using the pump, they were given 62.5 mL/d 1.0 kcal/mL of liquid food. After pump implantation, the rats received 40 mL of 2.1 kcal/mL of liquid feed daily. The rats were divided into five groups: control group (sham operation), model group (0.5% poloxamer, solvent), 4 mg/kg tolvaptan group, 4 mg/kg E3 group, and 20 mg/kg E3 group. E3 was administered orally every 8 h, while tolvaptan was given intragastrically once daily. At the end of the experiment, the rats were sacrificed.

[5] = SIADH rats, E3 4 or 20 mg/kg every 8 h, tolvaptan 4 mg/kg once daily, vs model rats

Compound | IC50 (UT-B [2]) | IC50 (UT-B [3]) | further results
CC(=O)Nc1ccc(NC(=O)c2ccc(C(C)=O)o2)cc1 [Compound 25a, N-(4-acetamidophenyl)-5-acetylfuran-2-carboxamide] | – | – | half-life [1]: 2.86 h; tmax time [1]: 0.25 h
CCN1CCN(c2ccc(NC(=O)c3ccc(C(C)=O)o3)cc2)CC1 [Compound E1] | 0.86 µM | 0.32 µM | –
CC(=O)c1ccc(C(=O)Nc2ccc(C(=O)NCCN(C)C)cc2)o1 [Compound E2] | 2.41 µM | 0.4 µM | –
CC(=O)c1ccc(C(=O)Nc2ccccc2NS(=O)(=O)c2ccccc2)o1 [Compound E4] | > 10 µM | 6.46 µM | –
CC(=O)c1ccc(C(=O)Nc2ccc(NS(=O)(=O)c3ccccc3)cc2)o1 [Compound E5] | 0.23 µM | 0.06 µM | –
O=P1(N(CCCl)CCCl)NCCCO1 (stereo not drawn) [cyclophosphamide (CP), cyclophosphamide, reference compound] | – | – | testicular and epididymal indices, sperm motility, abnormal morphology, sperm counts, Johnsen score (mice): caused abnormalities
Cc1ccccc1C(=O)Nc1ccc(C(=O)N2CCCC(O)c3cc(Cl)ccc32)c(C)c1 (stereo not drawn) [tolvaptan, reference compound] | – | – | hyponatremia in SIADH rats ([4]; E3 4 or 20 mg/kg orally every 8 h, tolvaptan 4 mg/kg once daily, vs model): significantly alleviated; serum osmolality [4, 5]: significantly increased; serum sodium concentration [4, 5]: significantly increased; blood urea levels ([4]; SIADH rats, between experimental groups before and after treatment): no significant difference; H&E staining of kidney and liver ([4]; SIADH rats, except dilatation of collecting ducts): normal tissue structures

The next lines start with results.

IC50 (UT-B [2]) | IC50 (UT-B [3]) | Compound | further results
0.18 µM | 0.05 µM | CC(=O)c1ccc(C(=O)Nc2ccc(NS(=O)(=O)c3ccccc3)c(O)c2)o1 [Compound E6] | –
0.23 µM | 0.09 µM | CC(=O)c1ccc(C(=O)Nc2ccc(S(=O)(=O)Nc3ccccc3)cc2)o1 [Compound E7] | –
2.55 µM | 0.77 µM | CC(=O)c1ccc(C(=O)Nc2ccc(S(=O)(=O)Nc3ccc(OCCN4CCOCC4)cc3)cc2)o1 [Compound E8] | –
4.07 µM | 1.75 µM | CC(=O)c1ccc(C(=O)Nc2ccc(S(=O)(=O)Nc3ccc(OCCCN4CCOCC4)cc3)cc2)o1 [Compound E9] | –
